Consider 25 molecules from ChEMBL document CHEMBL5154835, “Design, synthesis and biological evaluation of sulfonamides inhibitors of XPO1 displaying activity against multiple myeloma cells” (Eur J Med Chem, 2022).

By IC50 is commonly meant the point on the concentration scale where inhibition reaches its midpoint.

What all share (assay type): functional, cell-based
One assay relates to MM1.S. Briefly: Antiproliferative activity against human MM1.S cells assessed as inhibition of cell growth incubated for 4 hrs by CCK-8 assay. On the technique in general: Formazan colour is commonly taken as a measure of viable cells.
The subject of a further assay is H9. Briefly: Antiproliferative activity against human H9 cells assessed as inhibition of cell growth incubated for 4 hrs by CCK-8 assay. The following applies: H9, 4 h.
Assay [1] in a line: Antiproliferative activity against human Rael cells assessed as inhibition of cell growth incubated for 4 hrs by CCK-8 assay.
A short description of assay [2]: Antiproliferative activity against human JB-6 cells assessed as inhibition of cell growth incubated for 4 hrs by CCK-8 assay. The following applies: JB6, 4 h.
The nature of assay [3]: Antiproliferative activity against human Mutu-1 cells assessed as inhibition of cell growth incubated for 4 hrs by CCK-8 assay. Particulars: Mutu-1, 4 h.
A short description of assay [4]: Antiproliferative activity against human VAL cells assessed as inhibition of cell growth incubated for 4 hrs by CCK-8 assay.
Another assay relates to YT. Briefly: Antiproliferative activity against human YT cells assessed as inhibition of cell growth incubated for 4 hrs by CCK-8 assay.
A short description of assay [5]: Antiproliferative activity against human MINO cells assessed as inhibition of cell growth incubated for 4 hrs by CCK-8 assay.
For the next assay, the system named is NAMALVA. In words: Antiproliferative activity against human NAMALVA cells assessed as inhibition of cell growth incubated for 4 hrs by CCK-8 assay.

As for `CS(=O)(=O)Nc1cc(C#N)cc(/C(=C\n2cnc(-c3cc(C(F)(F)F)cc(C(F)(F)F)c3)n2)C(N)=O)c1`, the half-maximal inhibitory concentration (IC50) with MM1.S is 833 nM.

With `N#Cc1cn(/C=C(/C(N)=O)c2cncnc2)nc1-c1cc(C(F)(F)F)cc(C(F)(F)F)c1`, the IC50 in the assay with MM1.S came out at 1190 nM. For `NC(=O)/C(=C/n1cc(F)c(-c2cc(C(F)(F)F)cc(C(F)(F)F)c2)n1)c1cncnc1`, the IC50 in the assay with MM1.S turned out to be 713 nM. For the molecule `NC(=O)/C(=C/n1cc(Cl)c(-c2cc(C(F)(F)F)cc(C(F)(F)F)c2)n1)c1cncnc1`, the IC50 in the assay on MM1.S came to 2240 nM. Take `NC(=O)/C(=C/n1cnc(-c2cc(C(F)(F)F)cc(C(F)(F)F)c2)n1)c1ccc(NS(=O)(=O)C2CCCCC2)cc1`: the half-maximal inhibitory concentration (IC50) in the assay on MM1.S stood at 1270 nM.

`CS(=O)(=O)Nc1cccc(/C(=C\n2cnc(-c3cc(C(F)(F)F)cc(C(F)(F)F)c3)n2)C(N)=O)c1`: the IC50 with MM1.S was determined as 271 nM. Same read-out and setting: then `CS(=O)(=O)Nc1ccc(/C(=C\n2cnc(-c3cc(C(F)(F)F)cc(C(F)(F)F)c3)n2)C(N)=O)cc1C(F)(F)F`, with 845 nM; and `CN(c1ccc(/C(=C\n2cnc(-c3cc(C(F)(F)F)cc(C(F)(F)F)c3)n2)C(N)=O)cc1)S(C)(=O)=O`, with 446 nM; and `N#Cc1cncc(/C(=C\n2cnc(-c3cc(C(F)(F)F)cc(C(F)(F)F)c3)n2)C(N)=O)c1`, with 118 nM.

For the molecule `COc1ccc(/C(=C\n2cnc(-c3cc(C(F)(F)F)cc(C(F)(F)F)c3)n2)C(N)=O)c(F)c1F`, in the assay on MM1.S, the IC50 stood at 1200 nM. Same read-out and setting: the figure for `CCOc1ccc(/C(=C\n2cnc(-c3cc(C(F)(F)F)cc(C(F)(F)F)c3)n2)C(N)=O)c(F)c1F` is more than 10000 nM; for `COc1c(F)cc(/C(=C\n2cnc(-c3cc(C(F)(F)F)cc(C(F)(F)F)c3)n2)C(N)=O)cc1F` it is 3470 nM. Regarding `NC(=O)/C(=C/n1cnc(-c2cc(C(F)(F)F)cc(C(F)(F)F)c2)n1)c1ccc(F)nc1F`, in the assay on MM1.S, the IC50 worked out at 667 nM. In the case of `CN(C)C(=O)/C(=C/n1cnc(-c2cc(C(F)(F)F)cc(C(F)(F)F)c2)n1)c1ccc(NS(C)(=O)=O)cc1`, the IC50 with MM1.S worked out at 8960 nM. For the molecule `CCNC(=O)/C(=C/n1cnc(-c2cc(C(F)(F)F)cc(C(F)(F)F)c2)n1)c1ccc(NS(C)(=O)=O)cc1`, the IC50 with MM1.S was 2160 nM.

For the molecule `NC(=O)/C(=C/n1cnc(-c2cc(C(F)(F)F)cc(C(F)(F)F)c2)n1)c1cncnc1` [ELTANEXOR], the IC50 in the assay with H9 is 139 nM; in [1] it was 261 nM; in assay [2], 334 nM; with MM1.S, 64 nM; in assay [3], 283 nM; in assay [4], 287 nM. The results for the IC50 (in the assay on YT; in [5]; with NAMALVA) were 103 nM, 130 nM and 93.8 nM, respectively. As for `NC(=O)/C(=C/n1cnc(-c2cc(C(F)(F)F)cc(C(F)(F)F)c2)n1)c1cccnc1`, in the assay with MM1.S, the IC50 was 194 nM. Regarding `CCOC(=O)/C(=C/n1cnc(-c2cc(C(F)(F)F)cc(C(F)(F)F)c2)n1)c1ccc(NS(C)(=O)=O)cc1`, the IC50 with MM1.S was found to be 146 nM.

Turning to `Cc1ccc(S(=O)(=O)Nc2ccc(/C(=C\n3cnc(-c4cc(C(F)(F)F)cc(C(F)(F)F)c4)n3)C(N)=O)cc2)cc1`, the 50% inhibitory concentration (IC50) with MM1.S came to 2750 nM. `NC(=O)/C(=C/n1cnc(-c2cc(C(F)(F)F)cc(C(F)(F)F)c2)n1)c1ccc(C(F)(F)F)nc1`: the IC50 in the assay on MM1.S was determined as 363 nM. As to `NC(=O)/C(=C/n1cnc(-c2cc(C(F)(F)F)cc(C(F)(F)F)c2)n1)c1cc(F)c(F)c(F)c1`, the IC50 in the assay with MM1.S came to 2430 nM. With `Cc1cn(/C=C(/C(N)=O)c2cncnc2)nc1-c1cc(C(F)(F)F)cc(C(F)(F)F)c1`, the IC50 in the assay with MM1.S was found to be 2070 nM. As for `NC(=O)/C(=C/n1cnc(-c2cc(C(F)(F)F)cc(C(F)(F)F)c2)n1)c1ccc(NS(=O)(=O)c2ccccc2)cc1`, the IC50 with MM1.S is 337 nM.

`NC(=O)/C(=C/n1cnc(-c2cc(C(F)(F)F)cc(C(F)(F)F)c2)n1)c1cccc(F)c1F`: in the assay with MM1.S, the IC50 came out at 5200 nM. Take `NC(=O)/C(=C/n1cnc(-c2cc(C(F)(F)F)cc(C(F)(F)F)c2)n1)c1cccnc1F`: the IC50 with MM1.S worked out at 359 nM.
